Experimental data reported in patent US20260166150A1, “CRYSTAL FORM OF NK3R ANTAGONIST, AND PREPARATION METHOD THEREFOR AND USE THEREOF” (CHANGCHUN GENESCIENCE PHARMACEUTICAL CO., LTD., priority 2022, published 2026).

How the values were obtained:
[1] = target: T1, human NK-3 receptor (Homo sapiens, UniProt P29371); assay: Antagonistic activity on human NK-3 receptor, FLIPR calcium assay in stably transfected human NK-3R/HEK293 cells; format: cell-based
T1 construct: expressed in transfected cells; host or cells: HEK293 (stably transfected human NK-3R/HEK293)
T1 sequence (P29371 1-465): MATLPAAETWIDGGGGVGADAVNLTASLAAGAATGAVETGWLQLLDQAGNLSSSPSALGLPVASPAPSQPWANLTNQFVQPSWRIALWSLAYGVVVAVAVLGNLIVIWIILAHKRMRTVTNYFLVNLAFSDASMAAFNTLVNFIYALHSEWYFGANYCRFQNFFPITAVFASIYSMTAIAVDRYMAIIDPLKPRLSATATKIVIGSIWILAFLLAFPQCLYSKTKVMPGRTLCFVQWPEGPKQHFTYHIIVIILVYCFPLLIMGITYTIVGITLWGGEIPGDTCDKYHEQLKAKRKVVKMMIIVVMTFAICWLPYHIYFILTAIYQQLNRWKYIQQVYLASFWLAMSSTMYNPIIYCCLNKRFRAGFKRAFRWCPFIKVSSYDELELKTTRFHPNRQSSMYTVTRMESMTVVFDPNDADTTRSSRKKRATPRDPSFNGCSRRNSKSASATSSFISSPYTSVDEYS

[2] = Solid-state stability evaluation (open storage, XRPD and HPLC); format: physicochemical
Method: Waters H-Class ultra performance liquid chromatograph is used to collect solubility and purity data of the items.
An appropriate amount of sample was weighed, kept open at 60° C. for 1 day, as well as kept open at 25° C./60% RH and kept open at 40° C./75% RH for 1 week and 4 weeks respectively. Then, the sample was characterized by XRPD and HPLC to detect changes in the crystal form and chemical purity.

[3] = DVS hygroscopicity test at 25° C.; format: physicochemical
Method: • DVS curve is collected on DVS Intrinsic of SMS (Surface Measurement Systems) Relative humidity at 25° C. is calibrated based on deliquescent points of LiCl, Mg(NO3)2, and KCl. • Temperature: 25° C.; • Sample amount: 10-20 mg; • Protecting gas and flow rate: N2, 200 mL/min; • dm/dt: 0.002%/min; • Minimum dm/dt equilibration time: 10 min; • Maximum equilibration time: 180 min; • RH range: 0% RH-95% RH-0% RH; • RH gradient: 10% RH (0% RH-90% RH & 90% RH-0% RH); 5% RH (90% RH-95% RH & 95% RH-90% RH)

Row | Compound | NK-3 receptor antagonism (in words) ([1]; conclusion from IC50 data) | IC50 ([1]; human NK-3R/HEK293 cells, agonist Neurokinin B, FLIPR) [nM] | HPLC Relative purity % ([2]; 25° C./60% RH, 1 week, open) [%] | HPLC purity Area % ([2]; 25° C./60% RH, 1 week, open) [%] | HPLC Relative purity % ([2]; 25° C./60% RH, 4 weeks, open) [%] | HPLC purity Area % ([2]; 25° C./60% RH, 4 weeks, open) [%] | HPLC Relative purity % ([2]; 40° C./75% RH, 1 week, open) [%] | HPLC purity Area % ([2]; 40° C./75% RH, 1 week, open) [%] | HPLC Relative purity % ([2]; 40° C./75% RH, 4 weeks, open) [%] | HPLC purity Area % ([2]; 40° C./75% RH, 4 weeks, open) [%] | change of purity after storage ([2]; 60° C. 1 day, 25° C./60% RH and 40° C./75% RH, 1 week and 4 weeks, open) | HPLC Relative purity % ([2]; 60° C., 1 day, open) [%] | HPLC purity Area % ([2]; 60° C., 1 day, open) [%] | physicochemical stability (in words) ([2]; all evaluated storage conditions) | moisture adsorption ([3]; 25° C./80% RH, DVS) | hygroscopicity (in words) ([3]; DVS, 25° C.) | crystal form before and after DVS testing (XRPD) ([3]; XRPD before and after DVS)
1 | Cc1nsc(-c2nc(N3CCCC3=O)c3n2CCN(C(=O)c2ccc(F)cc2)[C@@H]3C)n1 [Compound represented by formula (I), (R)-1-(7-(4-fluorobenzoyl)-8-methyl-3-(3-methyl-1,2,4-thiadiazol-5-yl)-5,6,7,8-tetrahydroimidazo[1,5-a]pyrazin-1-yl)pyrrolidin-2-one] | potent NK-3 receptor antagonist | 12.1 |  |  |  |  |  |  |  |  |  |  |  |  |  |  | 
2 | Cc1nsc(-c2nc(N3CCCC3=O)c3n2CCN(C(=O)c2ccc(F)cc2)[C@@H]3C)n1 [Crystal form A of free base, (R)-1-(7-(4-fluorobenzoyl)-8-methyl-3-(3-methyl-1,2,4-thiadiazol-5-yl)-5,6,7,8-tetrahydroimidazo[1,5-a]pyrazin-1-yl)pyrrolidin-2-one] |  |  | 99.9 | 99.48 | 99.9 | 99.45 | 99.9 | 99.49 | 99.9 | 99.49 | < 0.2 %, area % | 99.9 | 99.49 | good physicochemical stability | about 0.15% | almost non-hygroscopic | did not change in the crystal form
